Several values for one entry are separate records, joined by “and”; a condition that tells them apart may be missing. Equal entries are not always repeated. Toxic doses and inconclusive results are not listed. Non-standard residues stand in square brackets, D forms with d. Residues, ends and D or L forms follow the SMILES beside them. *: point of attachment. Cbz = O=C(OCc1ccccc1)*; Dha = C=C(N)C(=O)O
Test system: CD2F1 mice, L1210 leukemia ip, survival T/C
Test: NCI In Vivo Anticancer Drug Screen. Data for tumor model L1210 Leukemia (intraperitoneal) in CD2F1 (CDF1) mice
Details: endpoint: mean survival time, higher = longer survival
Method in brief: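 Compound-dosed mice with transplantable tumor versus matched vehicle controls; endpoint ratio T/C reported.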

[1] = dose: 6.25 mg/kg/injection, schedule: Q01DX005 (ip), vehicle: water
[2] = dose: 12.5 mg/kg/injection, schedule: Q01DX005 (ip), vehicle: water
[3] = dose: 100.0 mg/kg/injection, schedule: Q01DX001 (ip), vehicle: saline with Tween-80
[4] = dose: 200.0 mg/kg/injection, schedule: Q01DX001 (ip), vehicle: saline with Tween-80
[5] = dose: 400.0 mg/kg/injection, schedule: Q01DX001 (ip), vehicle: saline with Tween-80
[6] = dose: 100.0 mg/kg/injection, schedule: Q01DX009 (ip), vehicle: saline with Tween-80
[7] = dose: 200.0 mg/kg/injection, schedule: Q01DX009 (ip), vehicle: saline with Tween-80
[8] = dose: 400.0 mg/kg/injection, schedule: Q01DX009 (ip), vehicle: saline with Tween-80
[9] = dose: 50.0 mg/kg/injection, schedule: Q04DX002 (ip), vehicle: saline with Tween-80
[10] = dose: 100.0 mg/kg/injection, schedule: Q04DX002 (ip), vehicle: saline with Tween-80
[11] = dose: 200.0 mg/kg/injection, schedule: Q04DX002 (ip), vehicle: saline with Tween-80
[12] = dose: 400.0 mg/kg/injection, schedule: Q04DX002 (ip), vehicle: saline with Tween-80
[13] = dose: 100.0 mg/kg/injection, schedule: Q04DX003 (ip), vehicle: saline with Tween-80
[14] = dose: 400.0 mg/kg/injection, schedule: Q04DX003 (ip), vehicle: saline with Tween-80
[15] = dose: 100.0 mg/kg/injection, schedule: Q04DX003 (ip), vehicle: saline
[16] = dose: 200.0 mg/kg/injection, schedule: Q04DX003 (ip), vehicle: saline
[17] = dose: 400.0 mg/kg/injection, schedule: Q04DX003 (ip), vehicle: saline
[18] = dose: 50.0 mg/kg/injection, schedule: Q01DX009 (ip), vehicle: saline with Tween-80
[19] = dose: 25.0 mg/kg/injection, schedule: Q01DX009 (ip), vehicle: saline with Tween-80

## N=c1ncn(C2OC(COP(=O)(O)O)C(O)C2O)c2nc[nH]c12 (stereo not drawn)
dose: 0.78 mg/kg/injection, schedule: Q01DX005 (ip), vehicle: water
  T/C: 102 % of control
dose: 1.56 mg/kg/injection, schedule: Q01DX005 (ip), vehicle: water
  T/C: 110 % of control
dose: 3.13 mg/kg/injection, schedule: Q01DX005 (ip), vehicle: water
  T/C: 105 % of control
[1]
  T/C: 111 % of control
dose: 11.3 mg/kg/injection, schedule: Q01DX005 (ip), vehicle: water
  T/C: 98 % of control
[2]
  T/C: 102 % of control
dose: 22.5 mg/kg/injection, schedule: Q01DX005 (ip), vehicle: water
  T/C: 98 % of control
dose: 45.0 mg/kg/injection, schedule: Q01DX005 (ip), vehicle: water
  T/C: 102 % of control

## CCCCCOc1cc(C(C)=O)cc(OC)c1OC(=O)c1cc([N+](=O)[O-])cc([N+](=O)[O-])c1
[3]
  T/C: 112 % of control
[4]
  T/C: 90 % of control
[5]
  T/C: 93 % of control

## CCCCNC(=O)C(C)S(=O)(=O)c1ccc(C)cc1 (stereo not drawn)
[6]
  T/C: 103 % of control
[7]
  T/C: 97 % of control
[8]
  T/C: 95 % of control

## C=C(NC(=O)CNC(=O)OCc1ccccc1)C(=O)O (Cbz-Gly-[Dha]-OH)
[9]
  T/C: 102 % of control
[10]
  T/C: 98 % of control
[11]
  T/C: 96 % of control
[12]
  T/C: 94 % of control

## COC(=O)C(C)C1CCC2C3CCC4CC(OC(C)=O)CCC4(C)C3CC(OC(C)=O)C12C (stereo not drawn)
[3]
  T/C: 95 % of control
[4]
  T/C: 103 % of control
[5]
  T/C: 94 % of control

## Nc1cc(Cl)c(Cl)cc1S(=O)(=O)NO
[13]
  T/C: 95 % of control
[14]
  T/C: 89 % of control

## O=CNCCO
[6]
  T/C: 98 % of control
[15]
  T/C: 113 % of control
[7]
  T/C: 94 % of control
[16]
  T/C: 108 % of control
[8]
  T/C: 93 % of control
[17]
  T/C: 110 % of control

## C(=NC1CCCCC1)c1c[nH]c2ccccc12
[6]
  T/C: 87 % of control
[13]
  T/C: 91 % of control
[7]
  T/C: 89 % of control
dose: 200.0 mg/kg/injection, schedule: Q04DX003 (ip), vehicle: saline with Tween-80
  T/C: 91 % of control
[14]
  T/C: 98 % of control

## O=CCC1CCCCC1
[18]
  T/C: 105 % of control
[6]
  T/C: 94 % of control
[7]
  T/C: 102 % of control

## CC1(C)OCC(C2OC(On3nnc4ccc(Cl)cc43)C3OC(C)(C)OC23)O1 (stereo not drawn)
dose: 12.5 mg/kg/injection, schedule: Q01DX005 (ip), vehicle: distilled water + Tween-80
  T/C: 98 % of control
dose: 25.0 mg/kg/injection, schedule: Q01DX005 (ip), vehicle: distilled water + Tween-80
  T/C: 96 % of control
dose: 50.0 mg/kg/injection, schedule: Q01DX005 (ip), vehicle: distilled water + Tween-80
  T/C: 105 % of control
dose: 100.0 mg/kg/injection, schedule: Q01DX005 (ip), vehicle: distilled water + Tween-80
  T/C: 96 % of control
dose: 200.0 mg/kg/injection, schedule: Q01DX005 (ip), vehicle: distilled water + Tween-80
  T/C: 105 % of control

## CSc1ncnc2cn(C3OC(CO)C(O)C3O)nc12 (stereo not drawn)
[1]
  T/C: 96 % of control
[2]
  T/C: 100 % of control
dose: 25.0 mg/kg/injection, schedule: Q01DX005 (ip), vehicle: water
  T/C: 114 % of control
dose: 50.0 mg/kg/injection, schedule: Q01DX005 (ip), vehicle: water
  T/C: 92 % of control
dose: 100.0 mg/kg/injection, schedule: Q01DX005 (ip), vehicle: water
  T/C: 100 % of control
dose: 200.0 mg/kg/injection, schedule: Q01DX005 (ip), vehicle: water
  T/C: 86 % of control

## [CH3][Sb]([CH3])([CH3])([O]C(=O)C(Cl)(Cl)Cl)[O]C(=O)C(Cl)(Cl)Cl
[10]
  T/C: 98 % of control
[11]
  T/C: 107 % of control
[12]
  T/C: 103 % of control

## O=C(Cl)c1ccc([N+](=O)[O-])cc1
[18]
  T/C: 96 % of control
[6]
  T/C: 101 % of control
[7]
  T/C: 104 % of control

## O=S(=O)(/C(=C\c1ccccc1)c1ccccc1)c1ccccc1
[15]
  T/C: 90 % of control
dose: 200.0 mg/kg/injection, schedule: Q01DX009 (ip), vehicle: saline
  T/C: 90 % of control
[16]
  T/C: 92 % of control
dose: 400.0 mg/kg/injection, schedule: Q01DX009 (ip), vehicle: saline
  T/C: 88 % of control
[17]
  T/C: 90 % of control

## O=c1[nH]c(NCCCCc2ccccc2)c(Br)c(=O)[nH]1
[3]
  T/C: 91 % of control

## CCN(CC)CCNC1CCCCC1
[19]
  T/C: 96 % of control
dose: 25.0 mg/kg/injection, schedule: Q04DX003 (ip), vehicle: saline
  T/C: 97 % of control
[18]
  T/C: 96 % of control
dose: 50.0 mg/kg/injection, schedule: Q04DX003 (ip), vehicle: saline
  T/C: 100 % of control
[6]
  T/C: 96 % of control
[15]
  T/C: 94 % of control

## O=C1c2ccccc2C(=O)c2c(O)c(Cc3cccnc3)cc(O)c21
dose: 100.0 mg/kg/injection, schedule: Q01DX009 (ip), vehicle: saline sonified
  T/C: 98 % of control
dose: 200.0 mg/kg/injection, schedule: Q01DX009 (ip), vehicle: saline sonified
  T/C: 98 % of control
dose: 400.0 mg/kg/injection, schedule: Q01DX009 (ip), vehicle: saline sonified
  T/C: 102 % of control

## CCOC(=O)Nc1ccc2c(c1)Cc1cc(N=Cc3ccc4c(c3)OCO4)ccc1-2
dose: 100.0 mg/kg/injection, schedule: Q01DX001 (ip), vehicle: carboxymethylcellulose (CMC)
  T/C: 105 % of control
dose: 200.0 mg/kg/injection, schedule: Q01DX001 (ip), vehicle: carboxymethylcellulose (CMC)
  T/C: 100 % of control
dose: 400.0 mg/kg/injection, schedule: Q01DX001 (ip), vehicle: carboxymethylcellulose (CMC)
  T/C: 97 % of control

## CCOC(=O)C(C)(Br)C(=O)OCC
[18]
  T/C: 104 % of control
[6]
  T/C: 105 % of control

## O=c1cc(Cc2ccccc2)[nH]c(=S)[nH]1
dose: 100.0 mg/kg/injection, schedule: Q01DX001 (ip), vehicle: Klucel (hydroxypropylcellulose) (HPC)
  T/C: 94 % of control
dose: 200.0 mg/kg/injection, schedule: Q01DX001 (ip), vehicle: Klucel (hydroxypropylcellulose) (HPC)
  T/C: 95 % of control
dose: 400.0 mg/kg/injection, schedule: Q01DX001 (ip), vehicle: Klucel (hydroxypropylcellulose) (HPC)
  T/C: 89 % of control

## CCCN(CCC)S(=O)(=O)c1ccc(NC(=O)OC(c2ccccc2)c2ccccc2)cc1
dose: 100.0 mg/kg/injection, schedule: Q01DX001 (ip), vehicle: saline
  T/C: 104 % of control
dose: 200.0 mg/kg/injection, schedule: Q01DX001 (ip), vehicle: saline
  T/C: 95 % of control
dose: 400.0 mg/kg/injection, schedule: Q01DX001 (ip), vehicle: saline
  T/C: 93 % of control

## CCCCOP(=O)(N=C=S)OCCCC
dose: 25.0 mg/kg/injection, schedule: Q04DX002 (ip), vehicle: saline with Tween-80
  T/C: 94 % of control
[9]
  T/C: 102 % of control
[10]
  T/C: 90 % of control and 96 % of control

## CC1=CC(=O)C2C(C)(C)CCCC2(C)C1(O)CCc1ccoc1 (stereo not drawn)
[10]
  T/C: 110 % of control
[11]
  T/C: 103 % of control
[12]
  T/C: 107 % of control

## Clc1ccc2c(CBr)ccnc2c1
dose: 50.0 mg/kg/injection, schedule: Q04DX003 (ip), vehicle: other
  T/C: 110 % of control
dose: 100.0 mg/kg/injection, schedule: Q04DX003 (ip), vehicle: other
  T/C: 112 % of control

## N#CCc1ccc(Cl)c(Cl)c1
[19]
  T/C: 102 % of control
dose: 25.0 mg/kg/injection, schedule: Q04DX003 (ip), vehicle: saline with Tween-80
  T/C: 111 % of control
[18]
  T/C: 100 % of control
dose: 50.0 mg/kg/injection, schedule: Q04DX003 (ip), vehicle: saline with Tween-80
  T/C: 94 % of control
[13]
  T/C: 102 % of control

## CC([NH-])C(C)[NH-].[Cl][Pt+2][Cl] (stereo not drawn)
dose: 1.56 mg/kg/injection, schedule: Q04DX002 (ip), vehicle: Klucel (hydroxypropylcellulose) (HPC)
  T/C: 113 % of control
dose: 3.12 mg/kg/injection, schedule: Q04DX002 (ip), vehicle: Klucel (hydroxypropylcellulose) (HPC)
  T/C: 120 % of control
dose: 12.5 mg/kg/injection, schedule: Q04DX002 (ip), vehicle: Klucel (hydroxypropylcellulose) (HPC)
  T/C: 166 % of control
dose: 25.0 mg/kg/injection, schedule: Q04DX002 (ip), vehicle: Klucel (hydroxypropylcellulose) (HPC)
  T/C: 118 % of control and 120 % of control
dose: 50.0 mg/kg/injection, schedule: Q04DX002 (ip), vehicle: Klucel (hydroxypropylcellulose) (HPC)
  T/C: 89 % of control

From PubChem BioAssay AID256 (DTP/NCI, 2004)
